Experimental data: paper PMC7863742, “Sensitive Fluorescence Assay for the Detection of Alkaline Phosphatase Based on a Cu^2+-Thiamine System” (Sensors (Basel, Switzerland), 2021)

Biological target: Alkaline phosphatase (ALP)
Assay: Cu2+-thiamine fluorescence assay of ALP hydrolysis of ascorbic acid 2-phosphate
Assay type: biochemical

Q: For `[O]=[V]([OH])([OH])[OH]` [Na3VO4], which IC50 is on record?
A: Its IC50 is 262 µM.
